Read-outs that look alike come from different tables or passages of the source.
Legend:
A549 cells = assay: Proliferation Assay (A549 viability, Cell Titer Fluor, 72 hours); format: cell-based
Outline: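 Cell Titer Fluor fluorescence after 72 h compound treatment (0.5% DMSO, 37 °C, 5% CO2) of A549 cells plated 24 h earlier at 1000/well. Four-parameter logistic fitting gave IC50.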

[1] = target: purified recombinant human GAC (GLS1) (Homo sapiens (Human), UniProt O94925); assay: GLS1 Enzymatic Activity Assay (dual-coupled enzymatic assay, resorufin/Amplex UltraRed readout); format: biochemical;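 also: glutamate from GAC coupled via glutamate oxidase and peroxidase to resorufin, read as fluorescence (ex 530, em 590 nm) kinetically or at 20 min, four-parameter logistic IC50 fit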
Chain of purified recombinant human GAC (GLS1) (O94925 other isoform, or with tags, fused parts or gaps): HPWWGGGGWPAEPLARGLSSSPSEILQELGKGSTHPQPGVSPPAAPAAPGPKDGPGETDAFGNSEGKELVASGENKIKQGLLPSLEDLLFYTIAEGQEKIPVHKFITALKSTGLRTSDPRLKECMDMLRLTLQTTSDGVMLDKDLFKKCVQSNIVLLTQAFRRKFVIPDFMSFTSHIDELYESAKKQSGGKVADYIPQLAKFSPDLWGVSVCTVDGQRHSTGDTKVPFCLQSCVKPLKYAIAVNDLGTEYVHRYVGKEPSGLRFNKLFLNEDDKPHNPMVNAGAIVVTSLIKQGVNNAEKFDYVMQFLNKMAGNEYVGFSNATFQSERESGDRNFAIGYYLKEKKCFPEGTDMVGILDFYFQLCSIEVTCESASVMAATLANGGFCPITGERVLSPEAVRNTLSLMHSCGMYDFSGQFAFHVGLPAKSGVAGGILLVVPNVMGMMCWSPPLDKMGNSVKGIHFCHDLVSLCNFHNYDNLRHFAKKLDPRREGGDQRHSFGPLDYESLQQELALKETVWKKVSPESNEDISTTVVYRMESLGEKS

Compound	EC50 (A549 cells; Homo sapiens, A549, 72 h)	IC50 [1]	EC50 (A549 cells)
CNC(=O)c1cn(CC(F)CCc2nnc(C(=O)NCc3ccccn3)s2)nn1 (stereo not shown) [Example 570, 5-(3-fluoro-4-(4-(methylcarbamoyl)-1H-1,2,3-triazol-1-yl)butyl)-N-(pyridin-2-ylmethyl)-1,3,4-thiadiazole-2-carboxamide]	500 to 5000 nM	100 to 500 nM	–
Cc1ccc(CC(=O)Nc2cn(CC(F)CCn3cc(C(=O)NCc4ncccc4F)nn3)nn2)cn1 (stereo not shown) [Example 345, 1-(3-fluoro-4-{4-[2-(6-methylpyridin-3-yl)acetamido]-1H-1,2,3-triazol-1-yl}butyl)-N-[(3-fluoropyridin-2-yl)methyl]-1H-1,2,3-triazole-4-carboxamide]	> 5000 nM	100 to 500 nM	–
O=C(Cc1ccncc1)Nc1ccc(CCCCn2cc(C(=O)NCc3cc(OC(F)(F)F)ccc3F)nn2)nn1 [Example 590, N-(2-fluoro-5-(trifluoromethoxy)benzyl)-1-(4-(6-(2-(pyridin-4-yl)acetamido)pyridazin-3-yl)butyl)-1H-1,2,3-triazole-4-carboxamide]	< 100 nM	< 100 nM	–
O=C(NCc1ccc(C2CC2)nc1)c1cn(CC(F)CCc2nnc(C(=O)NCc3cccc(C(F)(F)F)c3)s2)nn1 (stereo not shown) [Example 481, 5-[4-(4-{[(6-cyclopropylpyridin-3-yl)methyl]carbamoyl}-1H-1,2,3-triazol-1-yl)-3-fluorobutyl]-N-{[3-(trifluoromethyl)phenyl]methyl}-1,3,4-thiadiazole-2-carboxamide]	< 100 nM	< 100 nM	–
Cc1ccc(CC(=O)Nc2cn(CC(F)CCn3cc(C(=O)NCc4cc(OC(F)(F)F)ccc4F)nn3)nn2)cn1 (stereo not shown) [Example 343, 1-(3-fluoro-4-{4-[2-(6-methylpyridin-3-yl)acetamido]-1H-1,2,3-triazol-1-yl}butyl)-N-{[2-fluoro-5-(trifluoromethoxy)phenyl]methyl}-1H-1,2,3-triazole-4-carboxamide]	< 100 nM	< 100 nM	–
CNC(=O)c1cn(CC(F)CCc2ccc(NC(=O)Cc3cc(C(F)(F)F)cc(C4CC4)n3)nn2)nn1 (stereo not shown) [Example 263, 1-(4-(6-(2-(6-cyclopropyl-4-(trifluoromethyl)pyridin-2-yl)acetamido)pyridazin-3-yl)-2-fluorobutyl)-N-methyl-1H-1,2,3-triazole-4-carboxamide]	< 100 nM	< 100 nM	–
Cc1ccc(CC(=O)Nc2cn(CCCCn3cc(C(=O)NCc4cccnc4)nn3)nn2)cn1 [Example 322, 1-(4-{4-[2-(6-methylpyridin-3-yl)acetamido]-1H-1,2,3-triazol-1-yl}butyl)-N-(pyridin-3-ylmethyl)-1H-1,2,3-triazole-4-carboxamide]	500 to 5000 nM	100 to 500 nM	–
CNC(=O)c1cn(CCC(F)Cn2cc(C(=O)NCc3ccc(C)nc3)nn2)nn1 (stereo not shown) [Example 187, 1-[3-fluoro-4-(4-{[(6-methylpyridin-3-yl)methyl]carbamoyl}-1H-1,2,3-triazol-1-yl)butyl]-N-methyl-1H-1,2,3-triazole-4-carboxamide]	> 5000 nM	100 to 500 nM	–
CNC(=O)c1nnc(CCC(F)Cn2cc(C(=O)NCc3cc(C(F)(F)F)ccn3)nn2)s1 (stereo not shown) [Example 503, 5-{3-fluoro-4-[4-({[4-(trifluoromethyl)pyridin-2-yl]methyl}carbamoyl)-1H-1,2,3-triazol-1-yl]butyl}-N-methyl-1,3,4-thiadiazole-2-carboxamide]	500 to 5000 nM	100 to 500 nM	–
O=C(Cc1nccs1)Nc1nnc(CCC(F)Cn2cc(C(=O)NCc3cc(OC(F)(F)F)ccc3F)nn2)s1 (stereo not shown) [Example 573, 1-(2-fluoro-4-(5-(2-(thiazol-2-yl)acetamido)-1,3,4-thiadiazol-2-yl)butyl)-N-(2-fluoro-5-(trifluoromethoxy)benzyl)-1H-1,2,3-triazole-4-carboxamide]	< 100 nM	< 100 nM	–
O=C(Cc1cc(-c2cccc(OC(F)(F)F)c2)ccn1)Nc1ccc(CCCCn2cc(C(=O)NCCO)nn2)nn1 [Example 246, N-(2-hydroxyethyl)-1-(4-(6-(2-(4-(3-(trifluoromethoxy)phenyl)pyridin-2-yl)acetamido)pyridazin-3-yl)butyl)-1H-1,2,3-triazole-4-carboxamide]	< 100 nM	< 100 nM	–
O=C(Cc1cc(OC(F)(F)F)ccc1F)Nc1cn(CC(F)CCn2cc(C(=O)NCc3ccccn3)nn2)nn1 (stereo not shown) [Example 375, 1-[3-fluoro-4-(4-{2-[2-fluoro-5-(trifluoromethoxy)phenyl]acetamido}-1H-1,2,3-triazol-1-yl)butyl]-N-(pyridin-2-ylmethyl)-1H-1,2,3-triazole-4-carboxamide]	< 100 nM	< 100 nM	–
O=C(NCc1cccc(OC(F)(F)F)c1)c1cn(CCCCn2cc(C(=O)NC[C@H](O)c3ccccc3)nn2)nn1 [Example 139, N-[(2R)-2-hydroxy-2-phenylethyl]-1-{4-[4-({[3-(trifluoromethoxy)phenyl]methyl}carbamoyl)-1H-1,2,3-triazol-1-yl]butyl}-1H-1,2,3-triazole-4-carboxamide]	100 to 500 nM	100 to 500 nM	–
O=C(NCc1cccc(C2CC2)c1)c1cn(CCCCn2cc(C(=O)NCc3cncc(C(F)(F)F)c3)nn2)nn1 [Example 133, 1-[4-(4-{[(3-cyclopropylphenyl)methyl]carbamoyl}-1H-1,2,3-triazol-1-yl)butyl]-N-{[5-(trifluoromethyl)pyridin-3-yl]methyl}-1H-1,2,3-triazole-4-carboxamide]	< 100 nM	< 100 nM	–
CCNC(=O)c1cn(CCC(F)Cn2cc(C(=O)NCc3cc(C(F)(F)F)ccn3)nn2)nn1 (stereo not shown) [Example 154, N-ethyl-1-{3-fluoro-4-[4-({[4-(trifluoromethyl)pyridin-2-yl]methyl}carbamoyl)-1H-1,2,3-triazol-1-yl]butyl}-1H-1,2,3-triazole-4-carboxamide]	500 to 5000 nM	500 to 5000 nM	–
O=C(CN1CC(F)C1)Nc1cn(CC(F)CCn2cc(C(=O)NCc3cccc(OC(F)(F)F)c3)nn2)nn1 (stereo not shown) [Example 371, 1-(3-fluoro-4-{4-[2-(3-fluoroazetidin-1-yl)acetamido]-1H-1,2,3-triazol-1-yl}butyl)-N-{[3-(trifluoromethoxy)phenyl]methyl}-1H-1,2,3-triazole-4-carboxamide]	100 to 500 nM	< 100 nM	–
N#CCNC(=O)c1nnc(CCC(F)Cn2cc(C(=O)NCc3cccc(OC(F)(F)F)c3)nn2)s1 (stereo not shown) [Example 515, N-(cyanomethyl)-5-{3-fluoro-4-[4-({[3-(trifluoromethoxy)phenyl]methyl}carbamoyl)-1H-1,2,3-triazol-1-yl]butyl}-1,3,4-thiadiazole-2-carboxamide]	100 to 500 nM	< 100 nM	–
CNC(=O)c1cn(CC(F)CCc2nnc(NC(=O)Cc3cncc(-c4cccc(OC(F)(F)F)c4)c3)s2)nn1 (stereo not shown) [Example 195, 1-(2-fluoro-4-(5-(2-(5-(3-(trifluoromethoxy)phenyl)pyridin-3-yl)acetamido)-1,3,4-thiadiazol-2-yl)butyl)-N-methyl-1H-1,2,3-triazole-4-carboxamide]	< 100 nM	< 100 nM	–
O=C(NCc1cncc(C(F)(F)F)c1)c1cn(CCCCn2cc(C(=O)NCc3cc(C4CC4)ccn3)nn2)nn1 [Example 135, 1-[4-(4-{[(4-cyclopropylpyridin-2-yl)methyl]carbamoyl}-1H-1,2,3-triazol-1-yl)butyl]-N-{[5-(trifluoromethyl)pyridin-3-yl]methyl}-1H-1,2,3-triazole-4-carboxamide]	< 100 nM	< 100 nM	–
O=C(NCc1cccc(OC(F)(F)F)c1)c1cn(CCCCn2cc(C(=O)NCC3CC4CCC3O4)nn2)nn1 (stereo not shown) [Example 116, N-{7-oxabicyclo[2.2.1]heptan-2-ylmethyl}-1-{4-[4-({[3-(trifluoromethoxy)phenyl]methyl}carbamoyl)-1H-1,2,3-triazol-1-yl]butyl}-1H-1,2,3-triazole-4-carboxamide]	–	< 100 nM	100 to 500 nM
CNC(=O)c1cn(CC(F)CCc2nnc(NC(=O)Cc3cccc(OC(F)(F)F)c3)s2)nn1 (stereo not shown) [Example 497, 1-(2-fluoro-4-(5-(2-(3-(trifluoromethoxy)phenyl)acetamido)-1,3,4-thiadiazol-2-yl)butyl)-N-methyl-1H-1,2,3-triazole-4-carboxamide]	100 to 500 nM	< 100 nM	–
CC(C)COC(=O)NCc1cn(CCCCn2cc(C(=O)NCc3cccc(OC(F)(F)F)c3)nn2)nn1 [Example 56, 2-methylpropyl N-[(1-{4-[4-({[3-(trifluoromethoxy)phenyl]methyl}carbamoyl)-1H-1,2,3-triazol-1-yl]butyl}-1H-1,2,3-triazol-4-yl)methyl]carbamate]	< 100 nM	< 100 nM	–
O=C(NCc1cc(C(F)(F)F)ccn1)c1cn(CC(F)CCc2nnc(C(=O)NCc3ccccn3)s2)nn1 (stereo not shown) [Example 235, 5-(3-fluoro-4-(4-(((4-(trifluoromethyl)pyridin-2-yl)methyl)carbamoyl)-1H-1,2,3-triazol-1-yl)butyl)-N-(pyridin-2-ylmethyl)-1,3,4-thiadiazole-2-carboxamide]	100 to 500 nM	< 100 nM	–
O=C(CC1CCCCC1)Nc1cn(CCCCn2cc(C(=O)NCc3cccc(OC(F)(F)F)c3)nn2)nn1 [Example 296, 1-{4-[4-(2-cyclohexylacetamido)-1H-1,2,3-triazol-1-yl]butyl}-N-{[3-(trifluoromethoxy)phenyl]methyl}-1H-1,2,3-triazole-4-carboxamide]	< 100 nM	< 100 nM	–
O=C(CN1CC(F)(F)C1)Nc1cn(CCCCn2cc(C(=O)NCc3cc(OC(F)(F)F)ccc3F)nn2)nn1 [Example 353, 1-(4-{4-[2-(3,3-difluoroazetidin-1-yl)acetamido]-1H-1,2,3-triazol-1-yl}butyl)-N-{[2-fluoro-5-(trifluoromethoxy)phenyl]methyl}-1H-1,2,3-triazole-4-carboxamide]	100 to 500 nM	< 100 nM	–
Cc1ccc(CNC(=O)c2cn(CC(F)CCc3nnc(C(=O)NCc4cccc(OC(F)(F)F)c4)s3)nn2)cn1 (stereo not shown) [Example 420, 5-[3-fluoro-4-(4-{[(6-methylpyridin-3-yl)methyl]carbamoyl}-1H-1,2,3-triazol-1-yl)butyl]-N-{[3-(trifluoromethoxy)phenyl]methyl}-1,3,4-thiadiazole-2-carboxamide]	100 to 500 nM	< 100 nM	–

— US10344025B2, “GLS1 inhibitors for treating disease” (Board of Regents, The University of Texas System, priority 2014, dated 2019)
